Reference: patent US5484803A, “Transcutaneous in vivo activation of photosensitive agents in blood” (priority 1995, dated 1996)
Several values for one entry are separate records, joined by “and”; a condition that tells them apart may be missing. Identical values can stand only once.

Assays:
[1] = Body and organ weights and gross autopsy two weeks post-treatment; type: in vivo, Balb/c mice
Procedure: Six Balb/c mice (22±1 g weight) were prepared as described above. Five mice were injected twice (24 hour interval) with BPD from DMSO stock (not liposomal BPD) and exposed to light 1 hour after the injection. One mouse was not injected but was exposed to light (light-only control). During the first treatment the mice were injected with 15 μg BPD/mouse in 200 μl of PBS. During the second treatment the mice were injected with 20 μg BPD/mouse (0.9 mg/kg). A single mouse was used as a control for both treatments.
Immediately post-injection (on both occasions) the animals were kept for 1 hour in the dark and then were placed in individual plastic containers (9×4×5 cm), which were placed in the light box and exposed to light. The individual mice were removed from the light box at different intervals: 15, 30, 45, 60 and 75 min, respectively. The light doses delivered at the surface of the skin were 27, 54, 81, 108 and 135 J/cm^2, respectively. On the second occasion the same light doses were used; however, mice receiving higher light doses on day 1 received lower doses on day 2. The control mouse was exposed to light for 60 min on both occasions. During light exposure, the mice were constantly observed for signs of discomfort or itching. After the second light exposure, the mice were observed daily for a period of 2 weeks for appearance of the skin and general pattern of behavior.
Two weeks post-treatment blood samples were obtained from each mouse by a heart puncture, under halothane anesthesia. Then the mice were sacrificed and autopsied. Their spleen, liver and kidneys were weighed.

[2] = Pharmacokinetic studies: BPD concentration in plasma; type: in vivo, Balb/c mice; details: for Plasma Conc.: liposomal BPD
Procedure: (§1) Determination of BPD Concentration in Plasma: Plasma samples were obtained by centrifugation of blood collected from mice and stored frozen at -20° C. until assessment. The concentration of BPD in the samples was determined by fluorometry using a Jasco Model FP-770 (Japan Spectroscopic Co.) spectrofluorometer and a microcuvette (Far UV Quartz Cell, Starna Cells Inc.). Excitation and emission wavelengths were 439 and 699 nm, respectively. Plasma samples were diluted 20-fold with PBS containing 1% Triton® X-100 immediately before fluorescence was determined. BPD standards were prepared in 5% mouse plasma in PBS with 1% Triton® X-100. Under these conditions the relationship between the concentration of BPD and units of fluorescence was linear (correlation coefficient >0.99) for concentrations between 0.1 ng/ml and 1 μg/ml. The limit of detection was below 0.1 ng/ml sample which corresponded to 2 ng/ml plasma. […] The 699 nm fluorescence peak of BPD was virtually free from any interference.
(§2) In order to determine the level of BPD in plasma during the light treatment, the following experiment was carried out. Fourteen Balb/c mice (22±1 g of weight) were injected with liposomal BPD at 20 μg/mouse (0.9 mg/kg) in 200 μl PBS per mouse. Blood samples were obtained by heart puncture at various time intervals between 15 min and 2 hours post-injection. Exposure to light started at 15 min post-injection for some mice. The BPD concentration in plasma was determined as described above.

[3] = BPD concentration in plasma of mice injected with L1210 cells; type: in vivo, Balb/c mice; details: for BPD Concentration in Plasma: Balb/c mice injected with L1210 cells; for BPD Concentration in Plasma, % of dark control: L1210
Procedure: as §1
(§3) Male mature DBA/2 and Balb/c mice were injected intravenously with P815 and L1210 cells, respectively, preincubated for 1 hour with BPD (liposomal) at 100 ng/ml. Immediately before animal injection, an additional 2 μg of BPD was added to the syringes containing cells. […] One group of mice (shaved and depilated) was exposed immediately to red light (600-900 nm) in the light box for 1.5 hours (162 J/cm^2); the other group was kept in the dark as the control.
(§4) Immediately after exposure to light, blood samples were obtained by a heart puncture under halothane anesthesia. The concentration of BPD in plasma of light-exposed and control mice was determined by fluorescence. The number of clonogenic tumor cells in mouse blood was determined by culturing blood samples in culture medium supplemented with 10% bovine serum, using a limiting dilution assay protocol.

[4] = BPD concentration in plasma of mice injected with P815 cells; type: in vivo, DBA/2 mice; details: for BPD in Plasma: DBA/2 mice injected with P815 cells; for BPD in Plasma, % of dark control: P815
Procedure: as §1, §3, §4

mice = assay: Tolerability of light exposure starting 15 min post-injection (lethality); type: in vivo, Balb/c mice
Procedure: as §2
At 2 hours post-injection, i.e., at the time point corresponding to the end of 1 hour exposure to light (108 J/cm^2) in the first example, the plasma level of BPD was 2.44 μg/ml. At the beginning of exposure to light, in the same example, the plasma level of BPD was about 4 μg/ml. To further evaluate skin photosensitivity at these low levels, mice were exposed to light at an earlier time post-injection, i.e., at 15 min, when the level of BPD in plasma was 6.32 μg/ml.

skin = details: DBA/2, 4 mg/kg, cited from earlier work
[5] = in vivo; cited from earlier work
[6] = Drug + Light, individual mice, 2 weeks post-treatment

benzoprophyrin derivative monoacid ring A [BPD]
gross morphology and weights of internal organs ([1]; 2 weeks after double treatment, liver, spleen, kidneys): normal
toxicity (gross examination of liver, spleen, kidneys; blood parameters) ([1]; 2 weeks post-treatment): no toxicity was detected
Kidneys weight [1, 6]: 0.172 g and 0.343 g and 0.380 g and 0.396 g and 0.310 g
Liver weight [1, 6]: 1.105 g and 1.190 g and 1.208 g and 1.348 g and 0.958 g
Spleen weight [1, 6]: 0.077 g and 0.106 g and 0.094 g and 0.108 g and 0.078 g
Total Body Weight [1, 6]: 22 g and 23 g and 24 g and 25 g and 21 g
plasma level of BPD at the beginning of exposure to light ([2]; 1 hour post-injection, as in Example 1, 0.9 mg/kg): about 4 μg/ml
Plasma Conc. ([2]; 0.83 mg/kg, 20 min post injection): 4.68 µg/mL
Plasma Conc. ([2]; 0.83 mg/kg, 2 h 5 min post injection (text: 2 hours), 125 min): 2.44 µg/mL
Plasma Conc. ([2]; 0.87 mg/kg, 15 min post injection): 6.32 µg/mL
Plasma Conc. ([2]; 0.87 mg/kg, 1 h 38 min post injection, 98 min): 1.80 µg/mL
Plasma Conc. ([2]; 0.87 mg/kg, 1 h 42 min post injection, 102 min): 3.22 µg/mL
Plasma Conc. ([2]; 0.91 mg/kg, 1 h 24 min post injection, 84 min): 2.92 µg/mL
Plasma Conc. ([2]; 0.91 mg/kg, 1 h 32 min post injection, 92 min): 2.98 µg/mL
Plasma Conc. ([2]; 0.95 mg/kg, 1 h 23 min post injection, 83 min): 3.26 µg/mL
Percent photodegraded ([3]; Balb/c, L1210, 162 J/cm^2): 59%
BPD Concentration in Plasma ([3]; Dark control): 126.45 ng/mL
BPD Concentration in Plasma, % of dark control ([3]; Dark control): 100%
BPD Concentration in Plasma ([3]; Light exposed (162 J/cm^2)): 52.23 ng/mL
BPD Concentration in Plasma, % of dark control ([3]; Light exposed (162 J/cm^2)): 41%
Percent photodegraded ([4]; DBA/2, P815, 162 J/cm^2): 38%
BPD in Plasma ([4]; Dark control): 94.09 ng/mL
BPD in Plasma, % of dark control ([4]; Dark control): 100%
BPD in Plasma ([4]; Light exposed (162 J/cm^2)): 58.14 ng/mL
BPD in Plasma, % of dark control ([4]; Light exposed (162 J/cm^2)): 62%
starting plasma level of BPD lethal to mice (mice; light exposure of about 50 J/cm^2 whole body irradiation, 0.9 mg/kg, 15 min): about 6.5 μg/ml
discomfort on light exposure (mice; light from 15 min post-injection): almost immediately uncomfortable
death of mice on light exposure (mice; liposomal BPD 0.9 mg/kg, light from 15 min post-injection, 54 J/cm^2): died after 30 min of exposure
immediate post-exposure changes in the skin (skin; 153 J/cm^2 (170 mW/cm^2) at 3 h): no immediate post-exposure changes in the skin were observed
skin necrosis (skin; 153 J/cm^2 (170 mW/cm^2) at 3 h, within first 24 hour post-exposure, progressed up to 96 hours): severe skin necrosis
healing of wounds (skin; 153 J/cm^2, eventually): the wounds healed and the hair regrew
time of accumulation of BPD in the skin [5]: up to 5 hours
